IC50 data for three compounds are collected here from PMC11768184, “Non-Steroidal Anti-Inflammatory Drugs Are Inhibitors of the Intestinal Proton-Coupled Amino Acid Transporter (PAT1): Ibuprofen and Diclofenac Are Non-Translocated Inhibitors” (Pharmaceutics, 2025).

Format in all cases: cell-based
Test [1] concerns the target T1, proton-coupled amino acid transporter (hPAT1) (Homo sapiens, UniProt Q7Z2H8).
T1 construct: gene SLC36A1
As to the kind of experiment: concentration-dependent inhibition of [3H]-proline uptake in Caco-2 cells, pH […].

In test [2] the target is T1, proton-coupled amino acid transporter (hPAT1). As to the kind of experiment: TEVC in hPAT1-expressing Xenopus oocytes; [3H]-proline uptake inhibition and kinetics in Caco-2 cells, pH […].
Test [3] shares this target. As to the kind of experiment: TEVC in hPAT1-expressing Xenopus oocytes; [3H]-proline uptake inhibition in Caco-2 cells, pH […].

T1 sequence (Q7Z2H8 whole entry): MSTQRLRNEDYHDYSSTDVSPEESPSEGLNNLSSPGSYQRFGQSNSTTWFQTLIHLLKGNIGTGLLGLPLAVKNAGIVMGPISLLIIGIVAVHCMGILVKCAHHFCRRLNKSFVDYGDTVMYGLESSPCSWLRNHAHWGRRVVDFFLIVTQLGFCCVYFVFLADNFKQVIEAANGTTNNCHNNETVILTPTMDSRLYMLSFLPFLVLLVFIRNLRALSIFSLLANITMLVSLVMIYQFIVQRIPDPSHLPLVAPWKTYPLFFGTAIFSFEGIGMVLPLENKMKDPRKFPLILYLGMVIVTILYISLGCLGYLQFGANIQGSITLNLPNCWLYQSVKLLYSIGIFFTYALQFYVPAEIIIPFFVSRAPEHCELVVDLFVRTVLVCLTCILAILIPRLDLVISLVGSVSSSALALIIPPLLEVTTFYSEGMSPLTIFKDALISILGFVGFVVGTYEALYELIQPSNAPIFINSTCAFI

By IC50 is commonly meant the concentration that gives 50% inhibition. High values mean a need for much substance, low ones inhibition by little substance. Turning to `CC(C(=O)O)c1ccc(-c2ccccc2)c(F)c1` (racemic) [flurbiprofen], in test [1], the half-inhibitory concentration (IC50) turned out to be 280 µM. For the compound `CC(C)Cc1ccc(C(C)C(=O)O)cc1` (racemic) [ibuprofen], the half-maximal inhibitory concentration (IC50) in test [2] turned out to be 954 µM.

Take `O=C(O)Cc1ccccc1Nc1c(Cl)cccc1Cl` [diclofenac]: the IC50 in test [3] was determined as 272 µM.
